Tests used:
Olfr691 = biological target: T1, Olfr691 (Mus musculus, UniProt Q8VGW5); assay: dual-luciferase (cAMP/CREB reporter) ligand screen, Olfr691 in HEK293T cells; type: cell-based; details: for Olfr691 response in dual-luciferase assay: chemicals tested individually, screened at 500uM (* also at 100uM); for Relative response (% of 4-pentenoate response) at 500 µM: HEK-293T, 4 h
T1 construct: Lucy (N); expressed in transfected cells; host or cells: HEK293T, co-transfected with RTP1S
T1 sequence (Q8VGW5 1-322): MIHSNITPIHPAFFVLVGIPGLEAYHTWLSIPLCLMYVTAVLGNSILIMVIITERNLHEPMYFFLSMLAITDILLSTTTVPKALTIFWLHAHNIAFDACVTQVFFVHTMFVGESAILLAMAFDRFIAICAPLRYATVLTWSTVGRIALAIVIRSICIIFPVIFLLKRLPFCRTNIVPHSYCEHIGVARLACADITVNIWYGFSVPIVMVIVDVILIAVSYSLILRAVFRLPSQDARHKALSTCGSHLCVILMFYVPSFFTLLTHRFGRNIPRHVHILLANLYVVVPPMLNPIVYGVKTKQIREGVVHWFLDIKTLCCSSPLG

Olfr545 = assay: dual-luciferase (cAMP/CREB reporter) ligand screen, Olfr545 in HEK293T cells; type: cell-based, mouse; set-up: key to Olfr545 response in dual-luciferase assay: ‘+’ or ‘–‘ in each column indicates if the olfactory receptor responded or had no effect to that specific chemical; -: ‘+’ or ‘–‘ in each column indicates if the olfactory receptor responded or had no effect to that specific chemical; details: chemicals tested individually, screened at 500uM (* also at 100uM)
Olfr99 = assay: dual-luciferase (cAMP/CREB reporter) ligand screen, Olfr99 in HEK293T cells; type: cell-based, mouse; set-up: key: ‘+’ or ‘–‘ in each column indicates if the olfactory receptor responded or had no effect to that specific chemical; -: ‘+’ or ‘–‘ in each column indicates if the olfactory receptor responded or had no effect to that specific chemical; details: chemicals tested individually, screened at 500uM (* also at 100uM)
Olfr31 = biological target: T2, Olfr31 (Mus musculus, UniProt Q3KPA7); assay: dual-luciferase (cAMP/CREB reporter) ligand screen, Olfr31 in HEK293T cells; type: cell-based; details: chemicals tested individually, screened at 500uM (* also at 100uM)
T2 construct: expressed in transfected cells; host or cells: HEK293T, co-transfected with RTP1S
T2 sequence (Q3KPA7 1-317): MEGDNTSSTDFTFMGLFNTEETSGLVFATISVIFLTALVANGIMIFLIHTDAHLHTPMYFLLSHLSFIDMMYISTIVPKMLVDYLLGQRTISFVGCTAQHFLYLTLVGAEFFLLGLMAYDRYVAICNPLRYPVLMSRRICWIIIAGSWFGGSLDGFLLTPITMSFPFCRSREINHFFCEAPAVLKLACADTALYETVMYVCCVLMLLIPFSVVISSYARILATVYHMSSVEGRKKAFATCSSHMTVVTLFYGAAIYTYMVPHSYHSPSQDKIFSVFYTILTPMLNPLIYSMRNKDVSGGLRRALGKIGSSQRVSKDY

Olfr693 = assay: dual-luciferase (cAMP/CREB reporter) ligand screen, Olfr693 in HEK293T cells; type: cell-based, mouse; set-up: key: ‘+’ or ‘–‘ in each column indicates if the olfactory receptor responded or had no effect to that specific chemical; -: ‘+’ or ‘–‘ in each column indicates if the olfactory receptor responded or had no effect to that specific chemical; details: chemicals tested individually, screened at 500uM (* also at 100uM)
[1] = 0.5 mM ligand, normalized to the response of Olfr691 to the strongest ligand, 4-pentenoate

| Compound | Olfr691 response in dual-luciferase assay (Olfr691) | Olfr545 response in dual-luciferase assay (Olfr545) | Olfr99 response in dual-luciferase assay (Olfr99) | Olfr31 response in dual-luciferase assay (Olfr31) | Olfr693 response in dual-luciferase assay (Olfr693) | Relative response (% of 4-pentenoate response) at 500 µM (Olfr691; [1]) | Relative response at 0.5mM (Olfr691; [1]) | Olfr691 response (in words) (Olfr691; luciferase assay, co-expressed with RTP1S) |
| --- | --- | --- | --- | --- | --- | --- | --- | --- |
| COc1cccc(OC)c1 [1,3-Dimethoxybenzene] | - | - | - | - | - |  |  |  |
| Cc1ccc(C)s1 [2,5-Dimethylthiophene] | - | - | - | - | - |  |  |  |
| CCCCC(CC)C(=O)O (stereo not shown) [2-ethylhexanoate] | + | - | - | - | - | 76 ± 3.6% |  |  |
| CC1(C)C2CCC(=O)C1C2 (stereo not shown) [nopinone] | - | - | - | - | - |  |  |  |
| CCCCCOC(C)=O [amyl acetate] | - | - | - | - | - |  |  |  |
| CC(O)C(=O)O (stereo not shown) [lactic acid] | - | - | - | - | - |  |  |  |
| CC(=O)C=O [Pyruvaldehyde] | - | - | - | - | - |  |  |  |
| COc1ccccc1 [Anisole] | - | - | - | - | - |  |  |  |
| CCCCCCCO [1-Heptanol] | - | - | - | - | - |  |  |  |
| SCCCCS [1,4-butanedithiol] | - | - | - | - | - |  |  |  |
| CCCCCC(C)O (stereo not shown) [2-Heptanol] | - | - | - | - | - |  |  |  |
| OC1CCCCCC1 [cycloheptanol] | - | - | - | - | - |  |  |  |
| N[C@@H](CCC(=O)O)C(=O)O [l-glutamate] | - | - | - | - | - |  |  |  |
| O=C(O)CC(O)(CC(=O)O)C(=O)O [citric acid] | - | - | - | - | - |  |  |  |
| CCCC1CCOC(C)S1 (stereo not shown) [2-Methyl-4-propyl-1,3-oxathiane] | - | - | - | - | - |  |  |  |
| O=C(O)C1CCCCC1 [Cyclohexanecarboxylic acid] | - | - | - | - | - |  |  |  |
| Cc1cncc(C)n1 [2,6-Dimethylpyrazine] | - | - | - | - | - |  |  |  |
| CCC(=O)O [propionate] | + | - | - | - | - |  | 42 ± 3.1 | responds |
| C=C(C)[C@@H]1CC[C@@H](C)C(=O)C1 [(+)Dihydrocarvone] | - | - | - | - | - |  |  |  |
| O=Cc1ccccc1 [benzaldehyde] | - | - | - | - | - |  |  |  |
| O=C/C=C/c1ccccc1 [cinnamaldehyde] | - | - | - | - | - |  |  |  |
| CCCCCCC(=O)O [heptanoate] | + | - | - | - | - | 41 ± 2.1% |  |  |
| Fc1ccc(F)c(F)c1 [1,2,4 trifluorobenzene] | - | - | - | - | - |  |  |  |
| C[N+](C)(C)[O-] [Trimethylamine N-oxide] | - | - | - | - | - |  |  |  |
| CCCCCC(=O)O [caproate] | + | - | - | - | - | 80 ± 1.4% |  |  |

From article PMC4207771, “Identification and Characterization of Novel Renal Sensory Receptors” (PLoS ONE, 2014)
